Measurements from PMC4894417, “Quantitative High-Throughput Profiling of Environmental Chemicals and Drugs that Modulate Farnesoid X Receptor” (Scientific Reports, 2014).
Read-outs that look alike come from different tables or passages of the source.

Columns and labels:
vitamin D receptor (VDR) = vitamin D receptor (VDR) (Homo sapiens, UniProt P11473); experiment: VDR-bla reporter gene assay (agonist and antagonist modes)
[1] = tested on: FXR-UAS-bla HEK293T cells; experiment: Cell viability assay (CellTiter Glo) in the same well as FXR-bla; details: for Cell viability IC50: Table 1, mean ± SD of 3 experiments
human FXR [2] = molecular target: T1, human FXR (Homo sapiens, UniProt Q96RI1); experiment: FXR-bla reporter gene assay, agonist mode (qHTS); details: for FXR agonist activity: FXR-bla assay; for FXR-bla, agonist EC50: Table 1, confirmed compounds, mean ± SD of 3 experiments
human FXR [3] = molecular target: T1, human FXR; experiment: FXR-bla reporter gene assay, antagonist mode (CDCA-induced transactivation); details: for FXR-bla, antagonist Efficacy: Table 1, inhibition as percent of positive control (guggulsterone), 50 μM CDCA
[4] = tested on: FXR-UAS-bla HEK293T cells
[5] = Cell viability assay (CellTiter Glo) in the same well as FXR-bla; details: human, FXR-UAS-bla HEK293T cells
FXR-LBD [6] = molecular target: T2, FXR-LBD (Homo sapiens, UniProt Q96RI1); experiment: FXR TR-FRET coactivator recruitment assay, antagonist mode (50 μM CDCA); type: biochemical
T2 construct: The glutathione S-transferase (GST)-tagged FXR-LBD protein; purchased Life Technologies
T2 sequence (Q96RI1 262-486 limits assumed): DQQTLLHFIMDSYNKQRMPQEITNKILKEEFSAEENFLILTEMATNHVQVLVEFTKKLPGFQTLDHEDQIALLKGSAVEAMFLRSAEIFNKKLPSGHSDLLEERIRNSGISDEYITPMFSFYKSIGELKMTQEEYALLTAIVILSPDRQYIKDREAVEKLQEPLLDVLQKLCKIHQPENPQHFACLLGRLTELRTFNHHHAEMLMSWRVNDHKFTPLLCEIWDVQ

[7] = molecular target: peroxisome proliferator-activated receptor gamma (PPARγ) (Homo sapiens, UniProt P37231); experiment: PPARγ-bla reporter gene assay (agonist and antagonist modes)
FXR-LBD [8] = molecular target: T2, FXR-LBD; experiment: FXR TR-FRET coactivator recruitment assay, agonist mode; type: biochemical; details: Table 1; coactivator SRC2-2 recruitment
androgen receptor (AR) = androgen receptor (AR) (Homo sapiens, UniProt P10275); experiment: AR-bla reporter gene assay (agonist and antagonist modes)
[9] = Table S1, primary screening, 50 µM CDCA
[10] = Table S1, primary screening, CDCA 100%
[11] = Table 1, in the presence of 50 μM CDCA

T1 sequence (Q96RI1 with tags, fused parts or gaps limits assumed): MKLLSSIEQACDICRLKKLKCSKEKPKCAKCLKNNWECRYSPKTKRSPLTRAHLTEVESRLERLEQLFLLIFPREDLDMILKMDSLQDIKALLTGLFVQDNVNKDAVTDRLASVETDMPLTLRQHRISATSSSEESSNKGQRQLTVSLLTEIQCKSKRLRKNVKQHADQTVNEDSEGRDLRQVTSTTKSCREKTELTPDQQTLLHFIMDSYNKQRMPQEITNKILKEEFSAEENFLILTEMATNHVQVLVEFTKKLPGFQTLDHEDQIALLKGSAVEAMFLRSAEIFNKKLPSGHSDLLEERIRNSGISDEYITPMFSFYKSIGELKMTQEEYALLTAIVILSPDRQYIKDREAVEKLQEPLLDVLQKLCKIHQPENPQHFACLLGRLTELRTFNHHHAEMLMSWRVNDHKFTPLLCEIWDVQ
vitamin D receptor (VDR), sequence (P11473 with tags, fused parts or gaps limits assumed): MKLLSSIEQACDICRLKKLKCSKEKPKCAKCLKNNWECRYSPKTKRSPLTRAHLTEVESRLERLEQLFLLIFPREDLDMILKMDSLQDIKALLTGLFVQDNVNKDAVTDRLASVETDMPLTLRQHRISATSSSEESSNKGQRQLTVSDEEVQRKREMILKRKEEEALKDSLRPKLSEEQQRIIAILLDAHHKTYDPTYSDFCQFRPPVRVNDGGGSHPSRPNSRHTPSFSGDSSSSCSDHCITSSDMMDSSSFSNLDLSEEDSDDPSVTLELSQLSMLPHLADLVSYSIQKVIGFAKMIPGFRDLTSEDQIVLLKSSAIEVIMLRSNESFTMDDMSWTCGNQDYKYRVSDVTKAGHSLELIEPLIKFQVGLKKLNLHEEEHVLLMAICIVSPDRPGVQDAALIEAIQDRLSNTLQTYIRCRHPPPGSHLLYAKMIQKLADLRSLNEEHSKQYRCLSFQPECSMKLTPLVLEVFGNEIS
peroxisome proliferator-activated receptor gamma (PPARγ), sequence (P37231 with tags, fused parts or gaps limits assumed): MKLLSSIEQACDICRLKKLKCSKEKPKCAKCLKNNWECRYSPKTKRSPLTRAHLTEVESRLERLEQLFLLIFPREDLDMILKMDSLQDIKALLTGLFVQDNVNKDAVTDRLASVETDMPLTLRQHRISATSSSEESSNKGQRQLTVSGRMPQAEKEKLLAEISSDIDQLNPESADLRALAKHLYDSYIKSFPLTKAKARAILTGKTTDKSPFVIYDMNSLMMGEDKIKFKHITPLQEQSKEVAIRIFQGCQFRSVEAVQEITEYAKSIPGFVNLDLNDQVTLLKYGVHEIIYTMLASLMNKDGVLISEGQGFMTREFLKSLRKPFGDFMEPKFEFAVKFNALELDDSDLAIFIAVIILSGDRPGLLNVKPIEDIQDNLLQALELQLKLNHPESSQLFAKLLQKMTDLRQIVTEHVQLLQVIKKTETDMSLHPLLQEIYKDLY
androgen receptor (AR), sequence (P10275 with tags, fused parts or gaps limits assumed): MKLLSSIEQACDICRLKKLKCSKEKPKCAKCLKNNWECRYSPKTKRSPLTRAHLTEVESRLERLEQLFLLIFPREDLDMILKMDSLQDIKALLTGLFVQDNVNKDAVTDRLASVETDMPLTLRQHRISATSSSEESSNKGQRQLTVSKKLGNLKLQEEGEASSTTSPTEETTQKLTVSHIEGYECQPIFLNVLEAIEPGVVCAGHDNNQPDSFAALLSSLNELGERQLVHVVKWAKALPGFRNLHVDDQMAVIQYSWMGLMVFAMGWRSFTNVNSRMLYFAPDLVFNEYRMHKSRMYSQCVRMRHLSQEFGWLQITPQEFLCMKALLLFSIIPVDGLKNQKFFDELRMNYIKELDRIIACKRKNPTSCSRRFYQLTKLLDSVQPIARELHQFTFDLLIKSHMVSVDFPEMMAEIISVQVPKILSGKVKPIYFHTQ

CC(C)[C@H](C(=O)OC(C#N)c1cccc(Oc2ccccc2)c1)c1ccc(OC(F)F)cc1 (stereo partly drawn) [Flucythrinate]
VDR activity (vitamin D receptor (VDR)): antagonist activity | Cytotoxicity IC50 ([1]; Table S1, primary screening): Inactive | FXR agonist mode EC50 (human FXR [2]; Table S1, primary screening): Inactive | FXR antagonist mode Efficacy (human FXR [3]): 37 ± 9 | IC50 (human FXR [3]; FXR antagonist mode IC50): 31.4 ± 20.5 µM

O=c1c(-c2ccc(O)cc2)coc2cc(O)cc(O)c12 [Genistein]
FXR agonist mode EC50 (human FXR [2]; Table S1, primary screening): Inactive | IC50 (human FXR [3]; FXR antagonist mode IC50): 22.9 ± 3.16 µM | FXR antagonist mode Efficacy (human FXR [3]; [9]): 57 ± 6% | Cytotoxicity IC50 [4]: Inactive

C[C@H](CCC(=O)O)[C@H]1CC[C@H]2[C@@H]3CC[C@@H]4C[C@H](O)CC[C@]4(C)[C@H]3CC[C@]12C [LCA, lithocholic acid]
IC50 at 16 h [5]: 43.8 ± 4.18 µM | Cytotoxicity Efficacy ([1]; Table S1, primary screening): 65 ± 22% | FXR agonist activity (human FXR [2]): selectively induced transactivation of FXR | FXR agonist mode Efficacy (human FXR [2]; [10]): 20 ± 7% | FXR antagonist mode Efficacy (human FXR [3]; [9]): 75 ± 40%

COC(=O)C1=C(C)NC(C)=C(C(=O)OCCN2CCN(C(c3ccccc3)c3ccccc3)CC2)C1c1cccc([N+](=O)[O-])c1 (stereo not drawn) [Manidipine]
IC50 at 16 h [5]: 18.2 ± 15.1 µM | Cytotoxicity Efficacy ([1]; Table S1, primary screening): 49 ± 17% | EC50 (human FXR [2]): 6.92 ± 4 µM | FXR agonist activity (human FXR [2]): weak FXR agonist activity | FXR agonist mode Efficacy (human FXR [2]; [10]): 13 ± 1% | IC50 (human FXR [3]): 19.2 ± 10.4 µM | FXR antagonist mode Efficacy (human FXR [3]; [9]): 57 ± 35%

COC(=O)C1=C(C)NC(C)=C(C(=O)OCCN(C)Cc2ccccc2)C1c1cccc([N+](=O)[O-])c1 (stereo not drawn) [Nicardipine]
EC50 at 16 h [5]: 31.9 ± 15.8 µM | IC50 at 16 h [5]: 31.9 ± 15.8 µM | Cytotoxicity Efficacy ([1]; Table S1, primary screening): 125 ± 27% | Cytotoxicity Efficacy ([1]; Table S3): 125 ± 27% | EC50 (human FXR [2]): 3.64 ± 0.84 µM | FXR agonist activity (human FXR [2]): weak FXR agonist activity | FXR agonist mode Efficacy (human FXR [2]; [10]): 33 ± 7% | FXR agonist Efficacy (human FXR [2]; Table S3): 33 ± 7% | IC50 (human FXR [3]): 16.7 ± 5.67 µM | FXR antagonist mode Efficacy (human FXR [3]; [9]): 116 ± 10% | FXR antagonist Efficacy (human FXR [3]; Table S3, 50 µM CDCA): 116 ± 10%

COCCOC(=O)C1=C(C)NC(C)=C(C(=O)OC(C)C)C1c1cccc([N+](=O)[O-])c1 (stereo not drawn) [Nimodipine]
Cytotoxicity IC50 [4]: Inactive

COC(=O)Nc1nc2ccc(C(=O)c3cccs3)cc2[nH]1 [Nocodazole]
FXR TR-FRET, antagonist IC50 (FXR-LBD [6]): Inactive | PPARγ activity [7]: inhibiting β-lactamase expression | FXR TR-FRET, agonist EC50 (FXR-LBD [8]): Inactive | VDR activity (vitamin D receptor (VDR)): inhibiting β-lactamase expression | Cell viability IC50 [1]: Inactive | FXR-bla, agonist EC50 (human FXR [2]): Inactive | FXR antagonist Efficacy (human FXR [3]): 54 ± 2% | FXR antagonist activity (human FXR [3]; FXR-bla assay, CDCA-induced): inhibiting β-lactamase expression | IC50 (human FXR [3]; FXR-bla, antagonist IC50): 0.29 µM | IC50 (human FXR [3]; IC50, FXR-bla antagonist mode, primary screening, CDCA-induced): 0.32 µM

COc1cc([C@@H]2c3cc4c(cc3[C@H](O)[C@H]3COC(=O)[C@H]23)OCO4)cc(OC)c1OC [Podofilox]
PPARγ activity [7]: inhibiting β-lactamase expression | VDR activity (vitamin D receptor (VDR)): inhibiting β-lactamase expression | AR activity (androgen receptor (AR)): inhibiting β-lactamase expression

CO[C@H]1C[C@H](O[C@@H]2/C(C)=C/C[C@@H]3C[C@@H](C[C@]4(CC[C@H](C)[C@@H](C5CCCCC5)O4)O3)OC(=O)[C@@H]3C=C(C)/C(=N/O)[C@H]4OC/C(=C\C=C\[C@@H]2C)[C@]43O)O[C@@H](C)[C@@H]1O [Selamectin]
FXR agonist Efficacy (human FXR [2]): 68 ± 5% | FXR agonist mode Efficacy (human FXR [2]): 68 ± 5% | EC50 (human FXR [2]; FXR agonist mode EC50): 5.98 ± 0.39 µM | FXR antagonist Efficacy (human FXR [3]): 45 ± 6% | FXR antagonist mode Efficacy (human FXR [3]): 45 ± 6% | IC50 (human FXR [3]; FXR antagonist mode IC50): 2.48 ± 0.82 µM | Cytotoxicity IC50 [4]: Inactive

CCc1c(C(=O)NN2CCCCC2)nn(-c2ccc(Cl)cc2Cl)c1-c1ccc(Br)cc1 [Surinabant]
FXR TR-FRET, antagonist Efficacy (FXR-LBD [6]; [11]): 73 ± 1% | FXR TR-FRET, agonist EC50 (FXR-LBD [8]): Inactive | EC50 at 16 h [5]: 34.1 ± 13.5 µM | IC50 ([1]; Homo sapiens, HEK-293T, read-out: Cell viability IC50): 17.1 ± 1.12 µM | Cytotoxicity Efficacy ([1]; Table S3): 66 ± 17% | FXR-bla, agonist EC50 (human FXR [2]): Inactive | IC50 (human FXR [3]): 1.84 ± 0.77 µM | FXR-bla, antagonist Efficacy (human FXR [3]): 86 ± 25% | FXR antagonist Efficacy (human FXR [3]; Table S3, 50 µM CDCA): 96 ± 16%

CC[C@]1(O)C[C@@H]2CN(CCc3c([nH]c4ccccc34)[C@@](C(=O)OC)(c3cc4c(cc3OC)N(C)[C@H]3[C@@](O)(C(=O)OC)[C@H](OC(C)=O)[C@]5(CC)C=CCN6CC[C@]43[C@@H]65)C2)C1 [Vinblastine]
FXR TR-FRET, antagonist IC50 (FXR-LBD [6]; [11]): Inactive | FXR TR-FRET, agonist EC50 (FXR-LBD [8]): Inactive | Cell viability IC50 [1]: Inactive | FXR-bla, agonist EC50 (human FXR [2]): Inactive | IC50 (human FXR [3]): 0.1 ± 0.04 µM | FXR-bla, antagonist Efficacy (human FXR [3]): 57 ± 7% | FXR antagonist Efficacy (human FXR [3]; Table S3, 50 µM CDCA): 59 ± 2%

Eprinomectin B1a
FXR agonist mode Efficacy (human FXR [2]; [10]): 41 ± 1% | FXR agonist Efficacy (human FXR [2]; Table S3): 41 ± 1% | EC50 (human FXR [2]; read-out: FXR agonist mode EC50, Table S1, primary screening): 5.33 ± 0.35 µM | FXR antagonist mode Efficacy (human FXR [3]; [9]): 110 ± 6% | FXR antagonist Efficacy (human FXR [3]; Table S3, 50 µM CDCA): 110 ± 6% | IC50 (human FXR [3]; read-out: FXR antagonist mode IC50, Table S1, primary screening, 50 µM CDCA): 14.5 ± 0.98 µM | Cytotoxicity Efficacy [4]: 108 ± 4% | EC50 [4]: 14 ± 1.6 µM | IC50 [4]: 14 ± 1.6 µM
